Measurements as given in the NIST ThermoML archive (doi:10.1021/je1003466).
Several values for one entry are separate records, joined by “and”; a condition that tells them apart may be missing. Equal values may be shown once.

Assay: mn = molality of the nth substance listed, in mol/kg
Details: 298.15 K, 101 kPa, Liquid

CNC=O [N-methylformamide] + O
Details | mass density
m1 = 0.1996 | 997.54 kg/m3
m1 = 0.2 | 997.53 kg/m3 and 997.55 kg/m3
m1 = 0.3493 | 997.91 kg/m3
m1 = 0.5018 | 998.28 kg/m3
m1 = 0.5044 | 998.28 kg/m3
m1 = 0.5343 | 998.34 kg/m3
m1 = 0.9779 | 999.42 kg/m3
m1 = 0.9919 | 999.46 kg/m3
m1 = 1.011 | 999.49 kg/m3
m1 = 1.499 | 1000.63 kg/m3
m1 = 1.5 | 1000.62 kg/m3
m1 = 1.505 | 1000.65 kg/m3
m1 = 2.006 | 1001.79 kg/m3
m1 = 2.011 | 1001.79 kg/m3
m1 = 2.012 | 1001.79 kg/m3
m1 = 2.47 | 1002.77 kg/m3
m1 = 2.497 | 1002.77 kg/m3
m1 = 2.513 | 1002.86 kg/m3
m1 = 3.022 | 1003.9 kg/m3
m1 = 3.05 | 1003.95 kg/m3
m1 = 3.068 | 1004 kg/m3
m1 = 3.496 | 1004.81 kg/m3
m1 = 3.499 | 1004.82 kg/m3 and 1004.81 kg/m3
m1 = 3.989 | 1005.73 kg/m3
m1 = 3.992 | 1005.74 kg/m3
m1 = 3.997 | 1005.73 kg/m3
